For assay [1], the system named is MOLM-14 D835Y cells, FLT3 ITD and FLT3 D835Y. Description: Cell proliferation assay (CellTiter-Glo), MOLM-14 D835Y. The following applies: Homo sapiens, 72 h, 3d-Growth, GMean. It is filed as cell-based. In a few lines: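 MOLM-14 AML cells (endogenous FLT3 ITD, AC220-selected D835Y or F691L variants) or murine Ba/F3 expressing full-length FLT3 ITD/D835Y, without IL-3 for FLT3 dependence, 1×10^4 cells/well. Eight-point 1:3 series from 1 μM final, 0.2% DMSO, 3 days at 37 °C. CellTiter-Glo luminescence (ATP) gave IC50.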
On the technique in general: In ATP-based viability assays light output follows the ATP content of the culture.

The target of the next assay is T1, FLT3-D835Y (Homo sapiens, UniProt P36888, D835Y).
T1 construct: purchased Invitrogen PV3967
T1 sequence (P36888 27-993 D835Y): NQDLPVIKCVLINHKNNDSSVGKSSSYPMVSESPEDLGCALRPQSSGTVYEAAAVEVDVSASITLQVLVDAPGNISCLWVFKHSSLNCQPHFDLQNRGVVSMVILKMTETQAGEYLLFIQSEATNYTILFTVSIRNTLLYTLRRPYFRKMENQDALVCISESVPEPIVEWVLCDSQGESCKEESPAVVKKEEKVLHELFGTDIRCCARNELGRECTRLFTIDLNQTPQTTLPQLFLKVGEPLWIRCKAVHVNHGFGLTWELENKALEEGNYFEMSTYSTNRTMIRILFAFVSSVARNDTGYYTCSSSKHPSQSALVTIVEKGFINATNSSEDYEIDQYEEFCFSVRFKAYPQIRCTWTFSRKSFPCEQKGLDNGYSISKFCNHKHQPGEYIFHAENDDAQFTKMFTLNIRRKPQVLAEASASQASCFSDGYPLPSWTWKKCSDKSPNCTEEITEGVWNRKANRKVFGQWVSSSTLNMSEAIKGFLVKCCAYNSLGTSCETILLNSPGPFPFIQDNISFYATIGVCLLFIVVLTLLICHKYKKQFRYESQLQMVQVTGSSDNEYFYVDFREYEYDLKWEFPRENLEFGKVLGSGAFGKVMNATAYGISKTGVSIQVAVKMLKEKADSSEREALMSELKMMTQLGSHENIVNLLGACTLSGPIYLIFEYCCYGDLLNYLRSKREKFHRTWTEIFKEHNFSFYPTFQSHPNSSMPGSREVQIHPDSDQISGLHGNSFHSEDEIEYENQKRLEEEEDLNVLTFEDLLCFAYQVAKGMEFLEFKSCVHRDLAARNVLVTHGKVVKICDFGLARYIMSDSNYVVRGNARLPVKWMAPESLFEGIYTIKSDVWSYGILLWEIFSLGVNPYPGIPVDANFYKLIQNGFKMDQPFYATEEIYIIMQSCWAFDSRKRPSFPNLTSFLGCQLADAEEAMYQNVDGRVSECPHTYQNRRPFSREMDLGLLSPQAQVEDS
The assay can be described thus: AlphaScreen kinase assay with recombinant enzyme, FLT3-D835Y. The note with it: 8pt, GMean. It is filed as biochemical. A digest of the protocol:
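Inhibition was measured as a drop in AlphaScreen signal arising from phosphotyrosine-bead capture of a biotinylated poly(Glu4-Tyr) peptide (30 nM) phosphorylated by recombinant kinase. For IC50 work the stated final concentration was 10 μM for the FLT3 mutants and 100 μM for c-KIT.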
On the technique in general: Bead proximity is the source of the signal in Alpha formats.

What is called IC50 is the concentration needed to halve the response being measured. Turning to `CC1(N)CCN(C(=O)c2cccc(-c3cnc4[nH]c(-c5ccccc5)cc4c3)n2)C1` (stereo not shown) [Compound P-0078, (3-amino-3-methyl-pyrrolidin-1-yl)-[6-(2-phenyl-1H-pyrrolo[2,3-b]pyridin-5-yl)-2-pyridyl]methanone], the 50% inhibitory concentration (IC50) (in assay [1]; on FLT3-D835Y) was 0.0001 to 10 µM throughout.
For `CNCC1CCN(C(=O)c2cccc(-c3cnc4[nH]c(-c5ccccc5)cc4c3)n2)C1` (stereo not shown) [Compound P-0079, [3-(methylaminomethyl)pyrrolidin-1-yl]-[6-(2-phenyl-1H-pyrrolo[2,3-b]pyridin-5-yl)-2-pyridyl]methanone], the IC50 (in assay [1]; on FLT3-D835Y) was 0.0001 to 10 µM in each case.
`O=C(Nc1cccc(-c2cnc3[nH]c(-c4ccccc4)cc3c2)n1)C1CNC1` [Compound P-0084, N-[6-(2-phenyl-1H-pyrrolo[2,3-b]pyridin-5-yl)-2-pyridyl]azetidine-3-carboxamide]: the IC50 (in assay [1]; on FLT3-D835Y) was 0.0001 to 10 µM each time.
As for `O=C(c1cccc(-c2cnc3[nH]c(-c4ccccc4)cc3c2)n1)N1CCC(NC2CC2)C1` (stereo not shown) [Compound P-0085, [3-(cyclopropylamino)pyrrolidin-1-yl]-[6-(2-phenyl-1H-pyrrolo[2,3-b]pyridin-5-yl)-2-pyridyl]methanone], the half-inhibitory concentration (IC50) (in assay [1]; on FLT3-D835Y) was 0.0001 to 10 µM in each case.
For `O=S(=O)(NC1CCNCC1)c1cccc(-c2cnc3[nH]c(-c4ccccc4)cc3c2)n1` [Compound P-0086, 6-(2-phenyl-1H-pyrrolo[2,3-b]pyridin-5-yl)-N-(4-piperidyl)pyridine-2-sulfonamide], the IC50 (in assay [1]; at FLT3-D835Y) was 0.0001 to 10 µM each time.
With `NC1CCC(NS(=O)(=O)c2cccc(-c3cnc4[nH]c(-c5ccccc5)cc4c3)n2)CC1` (stereo not shown) [Compound P-0088, N-(4-aminocyclohexyl)-6-(2-phenyl-1H-pyrrolo[2,3-b]pyridin-5-yl)pyridine-2-sulfonamide], the IC50 (in assay [1]; on FLT3-D835Y) was 0.0001 to 10 µM throughout.
Turning to `O=C(c1cccc(-c2cnc3[nH]c(-c4ccccc4)cc3c2)n1)N1CC(F)(F)C1` [Compound P-0090, (3,3-difluoroazetidin-1-yl)-[6-(2-phenyl-1H-pyrrolo[2,3-b]pyridin-5-yl)-2-pyridyl]methanone], the concentration for half-maximal inhibition (IC50) (in assay [1]; at FLT3-D835Y) was 0.0001 to 10 µM each time.
As for `COC1CN(C(=O)c2cccc(-c3cnc4[nH]c(-c5ccccc5)cc4c3)n2)C1` [Compound P-0091, (3-methoxyazetidin-1-yl)-[6-(2-phenyl-1H-pyrrolo[2,3-b]pyridin-5-yl)-2-pyridyl]methanone], the IC50 (in assay [1]; at FLT3-D835Y) was 0.0001 to 10 µM each time.
As for `CC(C)Oc1ccc(-c2cc3cc(-c4cccc(C(=O)NC(C)(C)C#N)n4)cnc3[nH]2)cn1` [Compound P-0190, N-(1-cyano-1-methyl-ethyl)-6-[2-(6-isopropoxy-3-pyridyl)-1H-pyrrolo[2,3-b]pyridin-5-yl]pyridine-2-carboxamide], the IC50 (in assay [1]; on FLT3-D835Y) was 0.0001 to 10 µM in each case.
Take `CC(C)Oc1ncc(-c2cc3cc(-c4cccc(C(=O)NC(C)(C)C#N)n4)cnc3[nH]2)cn1` [Compound P-0191, N-(1-cyano-1-methyl-ethyl)-6-[2-(2-isopropoxypyrimidin-5-yl)-1H-pyrrolo[2,3-b]pyridin-5-yl]pyridine-2-carboxamide]: the IC50 (in assay [1]; at FLT3-D835Y) was 0.0001 to 10 µM in each case.
As for `Cc1nn(C(C)C)cc1-c1[nH]c2ncc(-c3cccc(C(=O)NC(C)(C)C#N)n3)cc2c1Cl` [Compound P-0192], the half-maximal inhibitory concentration (IC50) (in assay [1]; at FLT3-D835Y) was 0.0001 to 10 µM in each case.
For `CC(C)(C#N)NC(=O)c1cccc(-c2cnc3[nH]c(-c4cnn(CC(F)(F)F)c4)cc3c2)n1` [Compound P-0193, N-(1-cyano-1-methyl-ethyl)-6-[2-[1-(2,2,2-trifluoroethyl)pyrazol-4-yl]-1H-pyrrolo[2,3-b]pyridin-5-yl]pyridine-2-carboxamide], the IC50 (in assay [1]; at FLT3-D835Y) was 0.0001 to 10 µM each time.
Turning to `CC(C)(C#N)NC(=O)c1cccc(-c2cnc3[nH]c(-c4ccc(C5(C#N)CC5)cc4)cc3c2)n1` [Compound P-0194, 6-[2-[4-(1-cyanocyclopropyl)phenyl]-1H-pyrrolo[2,3-b]pyridin-5-yl]-N-(1-cyano-1-methyl-ethyl)pyridine-2-carboxamide], the IC50 (in assay [1]; on FLT3-D835Y) was 0.0001 to 10 µM each time.
Regarding `CC(C)(C#N)NC(=O)c1cccc(-c2cnc3[nH]c(-c4cncnc4)cc3c2)n1` [Compound P-0195, N-(1-cyano-1-methyl-ethyl)-6-(2-pyrimidin-5-yl-1H-pyrrolo[2,3-b]pyridin-5-yl)pyridine-2-carboxamide], the half-inhibitory concentration (IC50) (in assay [1]; on FLT3-D835Y) was 0.0001 to 10 µM throughout.
For `COc1ncc(-c2cc3cc(-c4cccc(C(=O)NC(C)(C)C#N)n4)cnc3[nH]2)cn1` [Compound P-0196, N-(1-cyano-1-methyl-ethyl)-6-[2-(2-methoxypyrimidin-5-yl)-1H-pyrrolo[2,3-b]pyridin-5-yl]pyridine-2-carboxamide], the IC50 (in assay [1]; at FLT3-D835Y) was 0.0001 to 10 µM throughout.
Regarding `CC(C)(C#N)NC(=O)c1cccc(-c2cnc3[nH]c(-c4ccc(N5CCOCC5)nc4)cc3c2)n1` [Compound P-0197, N-(1-cyano-1-methyl-ethyl)-6-[2-(6-morpholino-3-pyridyl)-1H-pyrrolo[2,3-b]pyridin-5-yl]pyridine-2-carboxamide], the IC50 (in assay [1]; at FLT3-D835Y) was 0.0001 to 10 µM each time.
On to `CC(C)(C#N)NC(=O)c1cccc(-c2cnc3[nH]c(-c4cnc(N5CCOCC5)nc4)cc3c2)n1` [Compound P-0198, N-(1-cyano-1-methyl-ethyl)-6-[2-(2-morpholinopyrimidin-5-yl)-1H-pyrrolo[2,3-b]pyridin-5-yl]pyridine-2-carboxamide], for which the IC50 (in assay [1]; at FLT3-D835Y) was 0.0001 to 10 µM throughout.
As to `CC(C)(C#N)NC(=O)c1cccc(-c2cnc3[nH]c(-c4cccc(N5CCCS5(=O)=O)c4)cc3c2)n1` [Compound P-0199, N-(1-cyano-1-methyl-ethyl)-6-[2-[3-(1,1-dioxo-1,2-thiazolidin-2-yl)phenyl]-1H-pyrrolo[2,3-b]pyridin-5-yl]pyridine-2-carboxamide], the IC50 (in assay [1]; at FLT3-D835Y) was 0.0001 to 10 µM throughout.
In the case of `CC(C)(NC(=O)c1cccc(-c2cnc3[nH]c(-c4cnn(C5CCNCC5)c4)cc3c2)n1)C(N)=O` [Compound P-0200, N-(2-amino-1,1-dimethyl-2-oxo-ethyl)-6-[2-[1-(4-piperidyl)pyrazol-4-yl]-1H-pyrrolo[2,3-b]pyridin-5-yl]pyridine-2-carboxamide], the IC50 (in assay [1]; on FLT3-D835Y) was 0.0001 to 10 µM in each case.
Consider `CC(C)(C#N)NC(=O)c1cccc(-c2cnc3[nH]c(-c4ccc(C(F)(F)F)nc4)cc3c2)n1` [Compound P-0201, N-(1-cyano-1-methyl-ethyl)-6-[2-[6-(trifluoromethyl)-3-pyridyl]-1H-pyrrolo[2,3-b]pyridin-5-yl]pyridine-2-carboxamide], for which the IC50 (in assay [1]; on FLT3-D835Y) was 0.0001 to 10 µM throughout.
Regarding `CC(C)(C#N)NC(=O)c1cccc(-c2cnc3[nH]c(-c4cnc(N5CCCC5)nc4)cc3c2)n1` [Compound P-0202, N-(1-cyano-1-methyl-ethyl)-6-[2-(2-pyrrolidin-1-ylpyrimidin-5-yl)-1H-pyrrolo[2,3-b]pyridin-5-yl]pyridine-2-carboxamide], the 50% inhibitory concentration (IC50) (in assay [1]; on FLT3-D835Y) was 0.0001 to 10 µM in each case.
On to `CCOc1ncc(-c2cc3cc(-c4cccc(C(=O)NC(C)(C)C#N)n4)cnc3[nH]2)cn1` [Compound P-0203, N-(1-cyano-1-methyl-ethyl)-6-[2-(2-ethoxypyrimidin-5-yl)-1H-pyrrolo[2,3-b]pyridin-5-yl]pyridine-2-carboxamide], for which the concentration for half-maximal inhibition (IC50) (in assay [1]; on FLT3-D835Y) was 0.0001 to 10 µM throughout.
On to `CC(C)(C#N)NC(=O)c1cccc(-c2cnc3[nH]c(-c4cnc(C(F)(F)F)nc4)cc3c2)n1` [Compound P-0204, N-(1-cyano-1-methyl-ethyl)-6-[2-[2-(trifluoromethyl)pyrimidin-5-yl]-1H-pyrrolo[2,3-b]pyridin-5-yl]pyridine-2-carboxamide], for which the IC50 (in assay [1]; at FLT3-D835Y) was 0.0001 to 10 µM throughout.
